These results are taken from patent US20090155266A1, “Methods and Compositions Relating to Vascular Endothelial Growth Factor and TH2 Mediated Inflammatory Diseases” (YALE UNIVERSITY, priority 2004, published 2009).

One assay deals with T1, VEGF-A (Homo sapiens, UniProt P15692).
T1 sequence (P15692 207-320 limits assumed): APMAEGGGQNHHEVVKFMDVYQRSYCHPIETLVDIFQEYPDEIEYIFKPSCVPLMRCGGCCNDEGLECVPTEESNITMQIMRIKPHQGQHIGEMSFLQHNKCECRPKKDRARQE
The following applies: cited from earlier work.

The target of the next assay is T2, VEGF-B (Homo sapiens, UniProt P49765).
T2 sequence (P49765 22-136 limits assumed): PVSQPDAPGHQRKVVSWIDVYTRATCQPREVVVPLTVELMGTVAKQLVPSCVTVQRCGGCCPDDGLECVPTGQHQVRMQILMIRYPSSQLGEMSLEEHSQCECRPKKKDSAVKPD
Particulars: cited from earlier work.

The next assay addresses T3, VEGF-C (Homo sapiens, UniProt P49767).
T3 sequence (P49767 112-227 limits assumed): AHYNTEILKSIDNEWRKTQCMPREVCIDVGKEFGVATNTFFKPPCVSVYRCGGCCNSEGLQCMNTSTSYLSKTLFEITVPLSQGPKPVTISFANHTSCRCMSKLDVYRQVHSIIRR
Particulars: cited from earlier work.

Assay [1] relates to OVA sensitized and challenged wild type mice. Briefly: OVA sensitization and challenge model of Th2 inflammation. In kind it is in vivo. Particulars: for antigen-stimulated IL-4 production / antigen-stimulated IL-13 production: BAL from OVA sensitized and challenged mice, antagonist IP; for onset of a Th2 mediated inflammatory disease: disease induced by allergen (ovalbumin sensitization) or genetic predisposition, summary statement; for airways hyperresponsiveness (AHR), methacholine responsiveness / BAL and tissue inflammation: wild type mice sensitized and challenged with OVA, SU1498 10 mg/kg/day or VEGF TrapR1R2 25 mg/kg, IP; for BAL and tissue inflammation: starting the day before first OVA dose. The method, then:
The OVA model was undertaken in wild type mice as previously described (Wang et al., 2000). Sensitization and challenge were undertaken in the presence and absence of the VEGF receptor antagonist SU1498 (10 mg/kg/day) or VEGF TrapR1R2 (Regeneron, Inc., Tarrytown, N.Y.) (25 mg/kg) which were given via an intraperitoneal (IP) route starting the day before the first dose of OVA. The VEGF TrapR1R2 is a fusion protein comprised of the extracellular domains of VEGFR1 and VEGFR2 coupled to the Fc-portion of IgG that binds VEGF-A, but not VEGF-B or VEGF-C (Cursiefen et al., 2004). T-bet null mutant mice (Finotto et al., 2002) were obtained from the Jackson Laboratories (Bar Harbor, Me.). At 6 weeks of age they were randomized to SU1498 or control vehicle as described above. Two weeks later phenotypic characterization was undertaken as described above.

Take “VEGF TrapR1R2: fusion protein comprised of the extracellular domains of VEGFR1 and VEGFR2 coupled to the Fc-portion of IgG (Regeneron)”: in the assay with VEGF-A, the “binding to VEGF-A” value is on record as “binds”. The “binding to VEGF-B” value with VEGF-B is on record as “not”. Also, the “binding to VEGF-C” value in the assay with VEGF-C is given as “not”. For the same compound, in assay [1], the “antigen-stimulated IL-4 production” value is on record as “markedly decreased”; the “antigen-stimulated IL-13 production” value is recorded as “markedly decreased”; the “onset of a Th2 mediated inflammatory disease” value is listed as “prevented onset”; the “airways hyperresponsiveness (AHR), methacholine responsiveness” value is reported as “abrogates”. Besides, in assay [1], the “BAL and tissue inflammation” value is reported as “abrogates”.
As for `CC(C)c1cc(/C=C(\C#N)C(=O)NCCCc2ccccc2)cc(C(C)C)c1O` [SU1498, reference compound], in assay [1], the “antigen-stimulated IL-4 production” value is on record as “markedly decreased”; the “antigen-stimulated IL-13 production” value was “markedly decreased”; the “onset of a Th2 mediated inflammatory disease” value was “prevented onset”; the “airways hyperresponsiveness (AHR), methacholine responsiveness” value is given as “markedly decreased”. The “BAL and tissue inflammation” value in assay [1] is “markedly decreased”.
